Data set [1] has as its target T1, NLRP3 (Homo sapiens, UniProt Q96P20). As to the kind of experiment: THP-1 cells pyroptosis assay. It counts as cell-based. Also on record: Seed THP-1 cells (25,000 cells/well) containing 1.0 μg/ml LPS; host or cells: THP-1 cells, LPS-primed and nigericin-stimulated. The conditions noted are these: 1 μg/ml LPS, nigericin 5 μM, resazurin readout. The method, then: The cells were routinely passaged and grown to confluency (~10^6 cells/ml). On the day of the experiment, THP-1 cells were harvested and resuspended into RPMI medium (without FBS). […] To this diluted cell solution was added LPS (Sigma #L4524) to give a 1 μg/ml Final Assay Concentration (FAC). 40 μl of the final preparation was aliquoted into each well of a 96-well plate. The plate thus prepared was used for compound screening.

Data set [2] addresses T2, P-gp (Homo sapiens, UniProt P08183).
T2 construct: expressed in transfected cells; host or cells: LLC-PK1 cells (porcine kidney epithelial cells)
As to the kind of experiment: Transcellular P-gp assay. It is filed as in vitro ADME. The settings on record: LLC-PK1 cells over-expressing human P-gp; for Papp: read-out: Permeation. The source says: The general assay uses transfected LLC-PK1 cells (porcine kidney epithelial cells) over-expressing human or mouse P-gp, cultured on 96 well semi-permeable filter membrane plates, where they form a polarized monolayer with tight junctions, and act as a barrier between the apical and basolateral compartment.
P-gp is expressed in the apical-facing membrane of the monolayer.
The tightness of the cell monolayer and functional activity of P-gp are confirmed by addition of a cell-impermeable marker, Lucifer yellow, and a reference P-gp substrate, edoxaban, respectively.

Data set [3] addresses T1, NLRP3. As to the kind of experiment: Human whole blood IL-1β release assay. It is filed as cell-based. Details: Human whole blood in Li-heparin tubes was obtained from healthy donors; from tissue; host or cells: human whole blood from healthy donors, LPS-primed and nigericin-stimulated. The settings on record: 1 μg/ml LPS, nigericin 10 μM, IL-1β by AlphaLisa. The source says:
For systemic delivery, the ability to inhibit NLRP3 when the compounds are present within the bloodstream is of great importance. For this reason, the NLRP3 inhibitory activity of a number of compounds in human whole blood was investigated in accordance with the following protocol.
Human whole blood in Li-heparin tubes was obtained from healthy donors from a volunteer donor panel.

pIC50: −log10 of the molar value.

T1 sequence (Q96P20 whole entry): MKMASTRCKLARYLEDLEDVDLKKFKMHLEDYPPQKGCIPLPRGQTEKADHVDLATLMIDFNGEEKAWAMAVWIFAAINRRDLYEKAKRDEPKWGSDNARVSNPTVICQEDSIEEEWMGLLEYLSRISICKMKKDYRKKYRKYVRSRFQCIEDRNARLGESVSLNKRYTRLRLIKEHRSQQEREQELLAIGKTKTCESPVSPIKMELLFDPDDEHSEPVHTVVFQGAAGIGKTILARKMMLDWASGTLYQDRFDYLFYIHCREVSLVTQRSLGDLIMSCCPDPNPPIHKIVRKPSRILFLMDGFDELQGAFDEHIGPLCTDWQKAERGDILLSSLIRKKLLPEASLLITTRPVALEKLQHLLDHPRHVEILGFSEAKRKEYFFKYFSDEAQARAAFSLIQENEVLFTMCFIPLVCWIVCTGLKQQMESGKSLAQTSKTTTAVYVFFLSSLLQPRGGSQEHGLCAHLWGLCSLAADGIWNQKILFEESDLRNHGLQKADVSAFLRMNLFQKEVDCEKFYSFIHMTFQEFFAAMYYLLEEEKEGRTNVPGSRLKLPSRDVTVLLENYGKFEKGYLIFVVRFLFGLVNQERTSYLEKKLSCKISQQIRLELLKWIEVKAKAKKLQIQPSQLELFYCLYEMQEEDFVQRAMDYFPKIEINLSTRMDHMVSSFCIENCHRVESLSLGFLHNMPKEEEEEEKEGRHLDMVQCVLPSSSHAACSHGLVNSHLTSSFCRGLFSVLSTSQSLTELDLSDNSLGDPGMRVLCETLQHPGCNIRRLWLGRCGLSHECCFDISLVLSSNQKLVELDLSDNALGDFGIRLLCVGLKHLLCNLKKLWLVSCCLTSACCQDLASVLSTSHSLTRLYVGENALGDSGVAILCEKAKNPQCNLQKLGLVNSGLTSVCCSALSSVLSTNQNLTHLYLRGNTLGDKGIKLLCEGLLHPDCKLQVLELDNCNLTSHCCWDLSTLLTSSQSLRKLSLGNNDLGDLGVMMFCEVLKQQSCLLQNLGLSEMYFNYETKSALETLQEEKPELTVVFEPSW
T2 sequence (P08183 whole entry): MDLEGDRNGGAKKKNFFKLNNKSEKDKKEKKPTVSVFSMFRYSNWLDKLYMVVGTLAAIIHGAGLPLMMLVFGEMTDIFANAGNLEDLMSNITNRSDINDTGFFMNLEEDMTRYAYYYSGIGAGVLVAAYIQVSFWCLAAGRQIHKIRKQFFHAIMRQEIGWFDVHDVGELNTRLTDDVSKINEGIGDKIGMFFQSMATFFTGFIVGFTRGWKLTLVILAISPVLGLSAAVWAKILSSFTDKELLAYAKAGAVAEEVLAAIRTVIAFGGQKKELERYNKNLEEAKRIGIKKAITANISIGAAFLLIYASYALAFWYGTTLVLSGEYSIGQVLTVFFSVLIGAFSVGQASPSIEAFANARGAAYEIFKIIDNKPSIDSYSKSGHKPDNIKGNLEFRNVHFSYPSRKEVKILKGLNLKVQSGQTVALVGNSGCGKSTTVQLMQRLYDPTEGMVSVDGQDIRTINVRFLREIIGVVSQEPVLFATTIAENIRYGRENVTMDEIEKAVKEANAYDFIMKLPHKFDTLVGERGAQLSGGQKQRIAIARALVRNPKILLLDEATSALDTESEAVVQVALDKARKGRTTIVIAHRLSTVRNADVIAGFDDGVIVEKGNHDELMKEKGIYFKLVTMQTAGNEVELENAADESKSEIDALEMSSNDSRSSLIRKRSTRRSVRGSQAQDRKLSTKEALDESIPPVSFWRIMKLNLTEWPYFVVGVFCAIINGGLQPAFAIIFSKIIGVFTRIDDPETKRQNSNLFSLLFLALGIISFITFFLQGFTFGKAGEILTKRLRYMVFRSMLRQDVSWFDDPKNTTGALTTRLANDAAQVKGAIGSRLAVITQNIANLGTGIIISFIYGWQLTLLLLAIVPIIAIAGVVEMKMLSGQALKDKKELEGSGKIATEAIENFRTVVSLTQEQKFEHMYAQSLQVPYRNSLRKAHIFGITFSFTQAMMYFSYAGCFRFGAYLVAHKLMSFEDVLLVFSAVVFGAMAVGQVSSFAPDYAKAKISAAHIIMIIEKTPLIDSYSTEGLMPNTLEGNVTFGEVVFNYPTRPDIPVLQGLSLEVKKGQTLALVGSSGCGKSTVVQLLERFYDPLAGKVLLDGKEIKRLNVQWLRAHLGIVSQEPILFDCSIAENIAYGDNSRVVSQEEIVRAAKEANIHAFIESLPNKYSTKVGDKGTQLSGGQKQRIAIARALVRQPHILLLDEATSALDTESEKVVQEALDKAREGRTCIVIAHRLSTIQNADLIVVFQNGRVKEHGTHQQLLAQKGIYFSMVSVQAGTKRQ

As usually defined, the pIC50 is the IC50 on a negative log10 scale, so that one unit is a factor of ten. For the compound `CCN1CCC[C@@H](Nc2nnc(-c3c(CO)cc4c(c3O)CCO4)n(C)c2=O)C1` (single isomer, unassigned) [Example 5b, (P or M)-3-[4-Hydroxy-6-(hydroxymethyl)-2,3-dihydrobenzofuran-5-yl]-4-methyl-6-[[(3R)-1-ethyl-3-piperidyl]amino]-1,2,4-triazin-5-one], the negative logarithm of the IC50 (pIC50) in data set [1] was 6.02.

With `CCN1CCC[C@@H](Nc2nnc(-c3c(COC)cc4c(c3O)CCO4)n(C)c2=O)C1` (single isomer, unassigned) [Example 6a, (M or P)-3-[4-Hydroxy-6-(methoxymethyl)-2,3-dihydrobenzofuran-5-yl]-4-methyl-6-[[(3R)-1-ethyl-3-piperidyl]amino]-1,2,4-triazin-5-one], the negative-log IC50 (pIC50) in data set [1] was less than 6.00.

By efflux ratio is commonly meant the permeability from basolateral to apical divided by that in the opposite direction, in the common usage. `CCN1CCC[C@@H](Nc2nnc(-c3c(C)cc4c(c3O)CCO4)n(C)c2=O)C1` (single isomer, unassigned) [Example 3b]: in data set [2], the efflux ratio came to 10 and the Papp came to 5.3 ×10⁻⁶ cm/s.

In the case of `CCN1CCC[C@@H](Nc2nnc(-c3c(C)cc4c(c3O)CCO4)n(CC)c2=O)C1` (atropisomer, axis not shown) [Example 2b, P-4-ethyl-6-[[(3R)-1-ethyl-3-piperidyl]amino]-3-(4-hydroxy-6-methyl-2,3-dihydrobenzofuran-5-yl)-1,2,4-triazin-5-one], in data set [2], the efflux ratio is 8 and the Papp amounted to 3.7 ×10⁻⁶ cm/s.

Take `CCn1c(-c2c(C)cc3c(c2O)CCO3)nnc(N[C@@H]2CCCN(CCO)C2)c1=O` (atropisomer, axis not shown) [Example 9b, (P or M)-4-ethyl-6-[[(3R)-1-(2-hydroxyethyl)-3-piperidyl]amino]-3-(4-hydroxy-6-methyl-2,3-dihydrobenzofuran-5-yl)-1,2,4-triazin-5-one]: the negative-log IC50 (pIC50) was 6.93 in data set [1] and 6.69 in data set [3]. In addition, the efflux ratio in data set [2] was determined as 2. Moreover, the Papp in data set [2] turned out to be 0.8 ×10⁻⁶ cm/s.

`CCN1CCC[C@@H](Nc2nnc(-c3c(C)cc(C(F)(F)F)cc3O)n(C)c2=O)C1` (atropisomer, axis not shown) [Reference Example RE-B, 6-[[(3R)-1-Ethyl-3-piperidyl]amino]-3-[2-hydroxy-6-methyl-4-(trifluoromethyl)phenyl]-4-methyl-1,2,4-triazin-5-one, reference compound]: in data set [2], the efflux ratio came out at 7.6 and the Papp came to 5.6 ×10⁻⁶ cm/s.

For `CCN1CCC[C@@H](Nc2nnc(-c3c(COC)cc4c(c3O)CCO4)n(C)c2=O)C1` (single isomer, unassigned) [Example 6b], the pIC50 in data set [1] was 7.82; in data set [3], 7.54. For the same compound, in data set [2], the efflux ratio came to 1. In addition, the Papp in data set [2] turned out to be 1.1 ×10⁻⁶ cm/s.

For `CCN1CCC[C@@H](Nc2nnc(-c3c(CO)cc4c(c3O)CCO4)n(C)c2=O)C1` (atropisomer, axis not shown) [Example 5a, (M or P)-3-[4-Hydroxy-6-(hydroxymethyl)-2,3-dihydrobenzofuran-5-yl]-4-methyl-6-[[(3R)-1-ethyl-3-piperidyl]amino]-1,2,4-triazin-5-one], the results for the pIC50 in data set [1] and in data set [3] were 7.08 and 6.99, respectively.

For `CCN1CCCC(Nc2nnc(-c3c(COC)cc4c(c3O)CCC4)n(C)c2=O)C1` [Example 7b, P-6-[[(3R)-1-ethyl-3-piperidyl]amino]-3-[4-hydroxy-6-(methoxymethyl)indan-5-yl]-4-methyl-1,2,4-triazin-5-one], in data set [2], the efflux ratio amounted to 12 and the Papp is 5.1 ×10⁻⁶ cm/s.

Turning to `CCc1cc2c(c(O)c1-c1nnc(N[C@@H]3CCCN(CC)C3)c(=O)n1C)CCO2` (single isomer, unassigned) [Example 1b], in data set [2], the efflux ratio turned out to be 11 and the Papp is 4.5 ×10⁻⁶ cm/s.

Regarding `CCN1CCC[C@@H](Nc2nnc(-c3c(CO)cc4c(c3O)CCO4)n(C)c2=O)C1` (atropisomer, axis not shown) [Example 5, 3-[4-Hydroxy-6-(hydroxymethyl)-2,3-dihydrobenzofuran-5-yl]-4-methyl-6-[[(3R)-1-ethyl-3-piperidyl]amino]-1,2,4-triazin-5-one], the pIC50 in data set [1] was 6.86.

In turn, `CCc1cc2c(c(O)c1-c1nnc(N[C@@H]3CCCN(CCO)C3)c(=O)n1C)CCO2` (atropisomer, axis not shown) [Example 8b, P-3-(6-ethyl-4-hydroxy-2,3-dihydrobenzofuran-5-yl)-6-[[(3R)-1-(2-hydroxyethyl)-3-piperidyl]amino]-4-methyl-1,2,4-triazin-5-one] had a pIC50 in data set [1] of 7.80. In data set [2], the efflux ratio turned out to be 1 and the Papp stood at 0.9 ×10⁻⁶ cm/s. In data set [3], this compound had a pIC50 of 7.19.

For `CCN1CCC[C@@H](Nc2nnc(-c3ccc4c(c3O)CCO4)n(C)c2=O)C1` [Reference Example RE-A, 6-[[(3R)-1-Ethyl-3-piperidyl]amino]-3-(4-hydroxy-2,3-dihydrobenzofuran-5-yl)-4-methyl-1,2,4-triazin-5-one, reference compound], in data set [2], the Permeation was 24.9 ×10⁻⁶ cm/s.

The values are drawn from US20260193239A1, “NOVEL COMPOUNDS” (Hoffmann-La Roche Inc., priority 2023, published 2026).
